From patent US5922724A, “Benzimidazole compounds and their use as modulators of the GABA a receptor complex” (Neurosearch A/S, priority 1995, dated 1999)

Target: benzodiazepine receptor sites (GABAA receptor complex)
Assay: Displacement of ^3 H-flunitrazepam (^3 H-FNM) binding to rat cerebral cortex membranes
Design: species or system male Wistar rats (cerebral cortex)
Conditions: ^3 H-FNM 1 nM, 40 min at 2° C., pH 7.1, non-specific binding with clonazepam 1 μM, read-out: IC50 (concentration of the test substance which inhibits the specific binding of ^3 H-FNM by 50%)
Text: At present two types of GABA receptors are known, the GABAA and the GABAB receptors. […] Activation of GABA receptors leads to alternations in membrane potential (hyperpolarization). The GABAA receptors are associated with chloride influx through its associated and integrated chloride channel, whereas GABAB receptor activation indirectly alters potassium and calcium channels as well as modifies second messenger production. The GABAA recognition sites can be activated by GABA, muscimol; and isoguvacine for example, but not by GABAB agonists such as for example baclofen. The modulatory GABAA recognition site at the benzodiazepine receptor sites can be selectively radiolabelled with ^3 H-flunitrazepam. The affinity of various potential ligands for the benzodiazepine receptor sites can thus be evaluated by estimating the ability of test compounds to displace ^3 H-flunitrazepam.
Preparations are performed at 0-4° C. unless otherwise indicated. Cerebral cortex from male Wistar rats (150-200 g) is homogenized for 5-10 sec in 20 ml Tris-HCl (30 mM, pH 7.4) using an Ultra-Turrax homogenizer. […]
The membrane preparation is thawed and centrifuged at 2° C. for 10 min at 27,000× g. […] Non-specific binding is determined using clonazepam (1 μM, final concentration). […] The amount of radioactivity on the filters is determined by conventional liquid scintillation counting. […]

SMILES	IC50 [nM]
c1cc(-n2ccnc2)cc(-n2cnc3cc(-c4ccoc4)ccc32)c1 [1-(3-(1-Imidazolyl)phenyl)-5-(3-furanyl)benzimidazole]	0.4
Cc1nccn1-c1cccc(-n2cnc3cc(-c4ccoc4)ccc32)c1 [1-(3-(2-Methylimidazol-1-yl)phenyl)-5-(3-furanyl)benzimidazole]	0.4
